Data published in patent publication US5137892A, “Quinoline, naphthyridine and pyridobenzoxazine derivatives” (Abbott Laboratories, priority 1990, dated 1992).
Converted amounts (≈) assume the structure as drawn.

Key:
Type in all cases: cell-based
[1] = test system: Pseudomonas aeruginosa K599/61; conditions: P. aeruginosa K599/61; BHI agar dilution, 20-24 hours; unit assumed
Method: (§1) The activity of the compounds of the present invention was tested against a wide variety of bacteria using standard assay procedures. Minimum inhibitory concentrations (MICs) were determined by the agar dilution method, described below, using Brain Heart Infusion agar.
(§2) Twelve petri dishes were prepared, each containing successive aqueous 2-fold dilutions of the test compounds mixed with 10 mL of sterilized Brain Heart Infusion (BHI) agar. Each plate was inoculated with 100-fold (or 10-fold, for slow-growing strains such as Micrococcus and Streptococcus) dilutions of up to 32 different microorganisms using a Steers replicator block calibrated to deliver approximately 10^4 colony forming units (CFUs). The inoculated plates were incubated at about 35°-37° C. for approximately 20-24 hours. In addition, a control plate, using BHI agar containing no test compound, was prepared and incubated at the beginning and at the end of each test. Ciprofloxacin was used as the reference antibiotic.
(§3) The MIC was defined as the lowest concentration of test compound yielding no growth (a slight haze or sparsely isolated colonies at the inoculum spot as compared to the growth control contaning no test compound.

[2] = test system: Streptococcus pyogenes 930 CONST; assay: In Vitro Antibacterial Activity, agar dilution MIC; conditions: S. pyogenes 930 CONST; BHI agar dilution, 20-24 hours; unit assumed
Method: as §1, §2, §3

[3] = test system: Streptococcus pyogenes EES61; assay: In Vitro Antibacterial Activity, agar dilution MIC; conditions: S. pyogenes EES61; BHI agar dilution, 20-24 hours; unit assumed
Method: as §1, §2, §3

Staphylococcus aureus 45 = assay: In Vitro Antibacterial Activity, agar dilution MIC; conditions: S. aureus 45; BHI agar dilution, 20-24 hours; unit assumed
Method: as §1, §2, §3

Escherichia coli SS = assay: In Vitro Antibacterial Activity, agar dilution MIC; conditions: E. coli SS; BHI agar dilution, 20-24 hours; unit assumed
Method: as §1, §2, §3

[4] = test system: Pseudomonas aeruginosa K799/WT; assay: In Vitro Antibacterial Activity, agar dilution MIC; conditions: P. aeruginosa K799/WT; BHI agar dilution, 20-24 hours; unit assumed
Method: as §1, §2, §3

Acinetobacter SP CMX 699 = assay: In Vitro Antibacterial Activity, agar dilution MIC; conditions: BHI agar dilution, 20-24 hours, unit assumed
Method: as §1, §2, §3

Escherichia coli KNK 437 = assay: In Vitro Antibacterial Activity, agar dilution MIC; conditions: E. coli KNK 437; BHI agar dilution, 20-24 hours; unit assumed
Method: as §1, §2, §3

Escherichia coli H560 = assay: In Vitro Antibacterial Activity, agar dilution MIC; conditions: E. coli H560; BHI agar dilution, 20-24 hours; unit assumed
Method: as §1, §2, §3

Pseudomonas cepacia 2961 = assay: In Vitro Antibacterial Activity, agar dilution MIC; conditions: P. cepacia 2961; BHI agar dilution, 20-24 hours; unit assumed
Method: as §1, §2, §3

[5] = test system: Klebsiella pneumoniae ATCC 8045; assay: In Vitro Antibacterial Activity, agar dilution MIC; conditions: K. pneumoniae ATCC 8045; BHI agar dilution, 20-24 hours; unit assumed
Method: as §1, §2, §3

[6] = test system: Enterobacter aerogenes ATCC 13048; assay: In Vitro Antibacterial Activity, agar dilution MIC; conditions: E. aerogenes ATCC 13048; BHI agar dilution, 20-24 hours; unit assumed
Method: as §1, §2, §3

[7] = test system: Streptococcus agalactaciae CMX 508; assay: In Vitro Antibacterial Activity, agar dilution MIC; conditions: S. agalactaciae CMX 508; BHI agar dilution, 20-24 hours; unit assumed
Method: as §1, §2, §3

[8] = test system: Staphylococcus aureus A5177; assay: In Vitro Antibacterial Activity, agar dilution MIC; conditions: S. aureus A5177; BHI agar dilution, 20-24 hours; unit assumed
Method: as §1, §2, §3

[9] = test system: Streptococcus bovis A5169; assay: In Vitro Antibacterial Activity, agar dilution MIC; conditions: S. bovis A5169; BHI agar dilution, 20-24 hours; unit assumed
Method: as §1, §2, §3

[10] = test system: Staphylococcus epidermidis 3519; assay: In Vitro Antibacterial Activity, agar dilution MIC; conditions: S. epidermidis 3519; BHI agar dilution, 20-24 hours; unit assumed
Method: as §1, §2, §3

[11] = test system: Enterococcus faecium ATCC 8043; assay: In Vitro Antibacterial Activity, agar dilution MIC; conditions: E. faecium ATCC 8043; BHI agar dilution, 20-24 hours; unit assumed
Method: as §1, §2, §3

[12] = test system: Pseudomonas aeruginosa BMH10; assay: In Vitro Antibacterial Activity, agar dilution MIC; conditions: P. aeruginosa BMH10; BHI agar dilution, 20-24 hours; unit assumed
Method: as §1, §2, §3

[13] = test system: Staphylococcus aureus NCTC 10649; assay: In Vitro Antibacterial Activity, agar dilution MIC; conditions: S. aureus NCTC 10649; BHI agar dilution, 20-24 hours; unit assumed
Method: as §1, §2, §3

[14] = test system: Micrococcus luteus ATCC 4698; assay: In Vitro Antibacterial Activity, agar dilution MIC; conditions: M. luteus ATCC 4698; BHI agar dilution, 20-24 hours; unit assumed
Method: as §1, §2, §3

[15] = test system: Pseudomonas aeruginosa A5007; assay: In Vitro Antibacterial Activity, agar dilution MIC; conditions: P. aeruginosa A5007; BHI agar dilution, 20-24 hours; unit assumed
Method: as §1, §2, §3

Escherichia coli JUHL = assay: In Vitro Antibacterial Activity, agar dilution MIC; conditions: E. coli JUHL; BHI agar dilution, 20-24 hours; unit assumed
Method: as §1, §2, §3

[16] = test system: Staphylococcus aureus CMX 553; assay: In Vitro Antibacterial Activity, agar dilution MIC; conditions: S. aureus CMX 553; BHI agar dilution, 20-24 hours; unit assumed
Method: as §1, §2, §3

[17] = test system: Staphylococcus aureus 1775; assay: In Vitro Antibacterial Activity, agar dilution MIC; conditions: S. aureus 1775; BHI agar dilution, 20-24 hours; unit assumed
Method: as §1, §2, §3

[18] = test system: Streptococcus pyogenes 2548 INDUC; assay: In Vitro Antibacterial Activity, agar dilution MIC; conditions: S. pyogenes 2548 INDUC; BHI agar dilution, 20-24 hours; unit assumed
Method: as §1, §2, §3

[19] = test system: Staphylococcus aureus 642A; assay: In Vitro Antibacterial Activity, agar dilution MIC; conditions: S. aureus 642A; BHI agar dilution, 20-24 hours; unit assumed
Method: as §1, §2, §3

Escherichia coli DC-2 = assay: In Vitro Antibacterial Activity, agar dilution MIC; conditions: E. coli DC-2; BHI agar dilution, 20-24 hours; unit assumed
Method: as §1, §2, §3

[20] = test system: Staphylococcus aureus ATCC 6538P; assay: In Vitro Antibacterial Activity, agar dilution MIC; conditions: S. aureus ATCC 6538P; BHI agar dilution, 20-24 hours; unit assumed
Method: as §1, §2, §3

[21] = test system: Micrococcus luteus ATCC 9341; assay: In Vitro Antibacterial Activity, agar dilution MIC; conditions: M. luteus ATCC 9341; BHI agar dilution, 20-24 hours; unit assumed
Method: as §1, §2, §3

[22] = test system: Providencia stuartii CMX 640; assay: In Vitro Antibacterial Activity, agar dilution MIC; conditions: P. stuartii CMX 640; BHI agar dilution, 20-24 hours; unit assumed
Method: as §1, §2, §3

[23] = test system: Staphylococcus aureus A-5278; assay: In Vitro Antibacterial Activity, agar dilution MIC; conditions: S. aureus A-5278; BHI agar dilution, 20-24 hours; unit assumed
Method: as §1, §2, §3

[24] = test system: Pseudomonas aeruginosa 2862; assay: In Vitro Antibacterial Activity, agar dilution MIC; conditions: P. aeruginosa 2862; BHI agar dilution, 20-24 hours; unit assumed
Method: as §1, §2, §3

[25] = test system: Pseudomonas aeruginosa 5263; assay: In Vitro Antibacterial Activity, agar dilution MIC; conditions: P. aeruginosa 5263; BHI agar dilution, 20-24 hours; unit assumed
Method: as §1, §2, §3

SMILES	MIC values [1]	MIC values [2]	MIC values [3]	MIC values (Escherichia coli SS)	MIC values [4]	MIC values (Acinetobacter SP CMX 699)	MIC values (Escherichia coli KNK 437)	MIC values (Escherichia coli H560)	MIC values (Pseudomonas cepacia 2961)	MIC values [5]	MIC values [6]	MIC values [7]	MIC values [8]	MIC values [9]	MIC values [10]	MIC values [11]	MIC values [12]	MIC values [13]	MIC values [14]	MIC values [15]	also measured
Cl.Cl.NCC1COC2(CCN(c3cc4c(cc3F)c(=O)c(C(=O)O)cn4-c3ccc(F)cc3F)C2)O1 (centres unmarked) [Example 159, 1-(2,4-difluorophenyl)-7-(2-aminomethyl-1,4-dioxa-7-azaspiro[4.4]non-7-yl)-6-fluoro-1,4-dihydro-4-oxo-3-quinolinecarboxylic acid dihydrochloride]	0.39 µg/mL	0.39 µg/mL	0.39 µg/mL	0.02 µg/mL	3.1 µg/mL	0.78 µg/mL	3.1 µg/mL	0.2 µg/mL	50 µg/mL	0.39 µg/mL	0.78 µg/mL	0.78 µg/mL	0.39 µg/mL	0.78 µg/mL	0.78 µg/mL	0.78 µg/mL	3.1 µg/mL	0.2 µg/mL	6.2 µg/mL	3.1 µg/mL	MIC values (Staphylococcus aureus 45): 0.78 µg/mL; MIC values (Escherichia coli JUHL): 0.39 µg/mL; MIC values [16]: 0.78 µg/mL; MIC values [17]: 100 µg/mL; MIC values [18]: 0.39 µg/mL; MIC values [19]: 0.39 µg/mL; MIC values (Escherichia coli DC-2): 6.2 µg/mL; MIC values [20]: 0.2 µg/mL; MIC values [21]: 12.5 µg/mL; MIC values [22]: 25 µg/mL
NC1CN(c2c(F)cc3c(=O)c(C(=O)O)cn(C4CC4)c3c2F)CC12OCCO2 (centres unmarked) [Example 274, 1-Cyclopropyl-6,8-difluoro-7-(9-amino-1,4-dioxa-7-azaspiro[4.4]non-7-yl)-1,4-dihydro-4-oxo-3-quinolinecarboxylic acid]	0.1 µg/mL (≈ 0.245 µM)	0.2 µg/mL (≈ 0.491 µM)	0.2 µg/mL (≈ 0.491 µM)	0.002 µg/mL (≈ 0.00491 µM)	1.56 µg/mL (≈ 3.83 µM)	0.2 µg/mL (≈ 0.491 µM)	0.78 µg/mL (≈ 1.91 µM)	0.2 µg/mL (≈ 0.491 µM)	6.2 µg/mL (≈ 15.2 µM)	0.05 µg/mL (≈ 0.123 µM)	0.2 µg/mL (≈ 0.491 µM)	0.2 µg/mL (≈ 0.491 µM)	0.1 µg/mL (≈ 0.245 µM)	0.39 µg/mL (≈ 0.957 µM)	0.1 µg/mL (≈ 0.245 µM)	0.39 µg/mL (≈ 0.957 µM)	1.56 µg/mL (≈ 3.83 µM)	0.05 µg/mL (≈ 0.123 µM)	0.39 µg/mL (≈ 0.957 µM)	1.56 µg/mL (≈ 3.83 µM)	MIC values [23]: 0.05 µg/mL (≈ 0.123 µM); MIC values (Escherichia coli JUHL): 0.05 µg/mL (≈ 0.123 µM); MIC values [16]: 0.1 µg/mL (≈ 0.245 µM); MIC values [17]: 6.2 µg/mL (≈ 15.2 µM); MIC values [18]: 0.1 µg/mL (≈ 0.245 µM); MIC values [19]: 0.1 µg/mL (≈ 0.245 µM); MIC values (Escherichia coli DC-2): 0.78 µg/mL (≈ 1.91 µM); MIC values [20]: 0.05 µg/mL (≈ 0.123 µM); MIC values [21]: 0.39 µg/mL (≈ 0.957 µM); MIC values [22]: 0.78 µg/mL (≈ 1.91 µM)
C[C@@H]1COc2c(N3CCC4(CC3)OCCCO4)c(F)cc3c(=O)c(C(=O)O)cn1c23 [Example 330]	0.78 µg/mL (≈ 1.86 µM)	1.56 µg/mL (≈ 3.73 µM)	1.56 µg/mL (≈ 3.73 µM)	0.01 µg/mL (≈ 0.0239 µM)	12.5 µg/mL (≈ 29.9 µM)	3.1 µg/mL (≈ 7.41 µM)	12.5 µg/mL (≈ 29.9 µM)	1.56 µg/mL (≈ 3.73 µM)	12.5 µg/mL (≈ 29.9 µM)	0.78 µg/mL (≈ 1.86 µM)	6.2 µg/mL (≈ 14.8 µM)	0.78 µg/mL (≈ 1.86 µM)	0.2 µg/mL (≈ 0.478 µM)	3.1 µg/mL (≈ 7.41 µM)	0.2 µg/mL (≈ 0.478 µM)	0.78 µg/mL (≈ 1.86 µM)	12.5 µg/mL (≈ 29.9 µM)	0.1 µg/mL (≈ 0.239 µM)	0.78 µg/mL (≈ 1.86 µM)	12.5 µg/mL (≈ 29.9 µM)	MIC values [23]: 0.1 µg/mL (≈ 0.239 µM); MIC values [24]: > 100 µg/mL; MIC values [25]: > 100 µg/mL; MIC values (Escherichia coli JUHL): 1.56 µg/mL (≈ 3.73 µM); MIC values [16]: 0.2 µg/mL (≈ 0.478 µM); MIC values [17]: 6.2 µg/mL (≈ 14.8 µM); MIC values [18]: 0.78 µg/mL (≈ 1.86 µM); MIC values [19]: 0.2 µg/mL (≈ 0.478 µM); MIC values (Escherichia coli DC-2): 12.5 µg/mL (≈ 29.9 µM); MIC values [20]: 0.1 µg/mL (≈ 0.239 µM); MIC values [21]: 1.56 µg/mL (≈ 3.73 µM); MIC values [22]: 50 µg/mL (≈ 119 µM)
